Laboratory results as given in US6162830A, “Benzenesulfonamide inhibitors of PDE-IV and their therapeutic use” (Warner-Lambert Company, priority 2000, dated 2000).

Each compound was assayed on PDE-IV (assay: PDE-IV Assay Procedure (SPA, 3H-cAMP, U937 lysate)). Conditions: U937 cell lysate as PDE-IV source; 200 nM cAMP, 8 nM 3H-cAMP; pH 8.0; 2% DMSO; 1 hour at 37° C.; initially tested at 10, 3, 1, 0.3, 0.1 μM.
Assay type: biochemical
Protocol: Representative compounds to be tested were diluted in 96-well plates. The compounds were either received as a 10 mM stock solution in DMSO, or as a solid which was resuspended to a concentration of 10 mM in DMSO. The compounds were initially tested at 10, 3, 1, 0.3, and 0.1 μM to calculate an IC50. In some cases, plates containing diluted compounds were frozen before being assayed. In these cases, the plates were thawed for 15 minutes at 37° C. and agitated before proceeding.
Two microliters of the diluted compounds on Rolipram were spotted into an assay plate. Ninety-eight microliters of reaction mixture containing PDE-IV enzyme were added to each well. The plate was then agitated for 2 minutes at a setting of 3.5 on a vortex and incubated for 1 hour at 37° C. The reaction was terminated with 50 μl of 0.5X SPA beads, and the reaction tray was allowed to incubate at room temperature for 20 minutes before radioactivity was measured using standard instrumentation.
The reaction mixture contained 35.2 mM Tris pH 8.0, 9.4 mM MgCl2, 4 mM β-mercapotoethanol, 200 nM cAMP, 8 nM ^3 H-cAMP, 2% DMSO 1% U937 lysate (from ABS). The reaction mixture was prepared by adding […] H2 O to 10 mL 10X Assay Buffer, 40 μL 1 μCi/μL ^3 H-cAMP, 20 μL 1 mM cAMP (cAMP stock made fresh each time), and 1 mL U937 cell lysate. 10X assay buffer was prepared by mixing 400 mM Tris Base with 400 mM Tris HCl to pH 8.0, adding to 100 mL of this Tris buffer solution, 1.017 g MgCl2, 319 μL μ-mercaptoethanol. 0.5X SPA beads was prepared by adding 500 mg beads to 56 mL H2 O for a final concentration of 8.9 mg/mL beads and 9 mM zinc sulfate.

Row | IC50 | Compound
1 | 0.46 µM | CCCN(CCC)S(=O)(=O)c1ccc(OC)c(OC)c1 [Example 4, N,N-Dipropyl-3,4-dimethoxybenzenesulfonamide]
2 | 0.45 µM | C=CCN(CC=C)S(=O)(=O)c1ccc(OC)c(OC)c1 [Example 5, N,N-Di-(2-propenyl)-3,4-dimethoxybenzenesulfonamide]
3 | 0.28 µM | CCOc1ccc(S(=O)(=O)N(C)C)cc1OCC [Example 6, N,N-Dimethyl-3,4-diethoxybenzenesulfonamide]
4 | 3.6 µM | COc1ccc(S(=O)(=O)N2CCCCC2)cc1OC [Example 7, N-(3,4-dimethoxybenzenesulfonyl)piperidine]
5 | 3.2 µM | COc1ccc(S(=O)(=O)N2CCCC2)cc1OC [Example 8, N-(3,4-dimethoxybenzenesulfonyl)pyrrolidine]
6 | 2.2 µM | COc1ccc(S(=O)(=O)NC2CCCCC2)cc1OC [Example 9, N-(3,4-dimethoxybenzenesulfonyl)cyclohexylamine]
7 | 0.17 µM | C#CCN(C)S(=O)(=O)c1ccc(OCC)c(OCC)c1 [Example 10, N-(2-Propynyl)-N-methyl-3,4-diethoxybenzenesulfonamide]
8 | 0.7 µM | CCN(C)S(=O)(=O)c1ccc(OC)c(OC)c1 [Example 11, N-Ethyl-N-methyl-3,4-dimethoxybenzenesulfonamide]
9 | 0.47 µM | CCCN(C)S(=O)(=O)c1ccc(OC)c(OC)c1 [Example 12, N-Propyl-N-methyl-3,4-dimethoxybenzenesulfonamide]
10 | 0.66 µM | C=CCN(C)S(=O)(=O)c1ccc(OC)c(OC)c1 [Example 15, N-(2-Propenyl)-N-methyl-3,4-dimethoxybenzenesulfonamide]
11 | 1.56 µM | CC=CCN(C)S(=O)(=O)c1ccc(OC)c(OC)c1 [Example 16, N-(2-Butenyl)-N-methyl-3,4-dimethoxybenzenesulfonamide]
12 | 0.02 µM | C=CCN(C)S(=O)(=O)c1ccc(OCC)c(OCC)c1 [Example 17, N-(2-Propenyl)-N-methyl-3,4-diethoxybenzenesulfonamide]
13 | 1.76 µM | COc1ccc(S(=O)(=O)N(C)CC#N)cc1OC [Example 23, N-(methylenenitrile)-N-methyl-3,4-dimethoxybenzenesulfonamide]
